# Reference: patent publication US9968619B2, “Method of treating triple-negative breast cancer using thienotriazolodiazepine compounds” (ONCOETHIX GMBH, priority 2014, dated 2018)
# Experiments:
# mTOR = mTOR (Homo sapiens, UniProt P42345); settings: cited from earlier work
# [1] = test system: MDA-MB-231 nude mice-derived xenografts; experiment: MDA-MB-231 xenografts in nude mice; format: in vivo; settings: Compound (1-1) 50 mg/kg BID po; everolimus 2 mg/kg 3 time a week ip; 4 weeks treatment
# Protocol: In vivo assays were performed in 8-week-old female MDA-MB-231 nude mice-derived xenografts. 10×10^6 cells were injected, when tumor volume reached 100 mm^3, mice were randomized to 4 groups (n=9): 1) vehicle; 2) 50 mg/kg Compound (1-1) (BID, po); 3) 2 mg/kg of everolimus (3 time a week, ip); 4) combination Compound (1-1) and everolimus; 4 weeks treatment.
# Symbols with • indicate significant differences between treatment vs. vehicle-treated mice (p<0.05). * indicates a significant difference in the tumor mass between the combination treated animals and the two single agent groups (*p<0.05, **p<0.01 and ***p<0.001). Results represent the mean±SEM (during the treatment period, n=9). Variation of animal body weight during treatment is illustrated in FIG. 18B. […] The T/C ratio was 39% after 10 days of combination treatment, with an optimal value of 21% on day 23. Compound (1-1) can be used for the treatment of TNBC, either alone or in combination with mTOR inhibitors.
# FKBP12 = FKBP12 (Homo sapiens, UniProt P62942); settings: cited from earlier work
# Chain of FKBP12 (P62942 whole entry, species assumed): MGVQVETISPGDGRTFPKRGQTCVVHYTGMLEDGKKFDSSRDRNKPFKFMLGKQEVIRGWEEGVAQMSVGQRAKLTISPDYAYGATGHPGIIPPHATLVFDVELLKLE
# HCC1937 = settings: cited from earlier work
# MDA-MB-231 = settings: cited from earlier work
# p110β (PI3Kβ) = p110β (PI3Kβ) (Homo sapiens, UniProt P42338); settings: cited from earlier work
# Chain of p110β (PI3Kβ) (P42338 whole entry, species assumed): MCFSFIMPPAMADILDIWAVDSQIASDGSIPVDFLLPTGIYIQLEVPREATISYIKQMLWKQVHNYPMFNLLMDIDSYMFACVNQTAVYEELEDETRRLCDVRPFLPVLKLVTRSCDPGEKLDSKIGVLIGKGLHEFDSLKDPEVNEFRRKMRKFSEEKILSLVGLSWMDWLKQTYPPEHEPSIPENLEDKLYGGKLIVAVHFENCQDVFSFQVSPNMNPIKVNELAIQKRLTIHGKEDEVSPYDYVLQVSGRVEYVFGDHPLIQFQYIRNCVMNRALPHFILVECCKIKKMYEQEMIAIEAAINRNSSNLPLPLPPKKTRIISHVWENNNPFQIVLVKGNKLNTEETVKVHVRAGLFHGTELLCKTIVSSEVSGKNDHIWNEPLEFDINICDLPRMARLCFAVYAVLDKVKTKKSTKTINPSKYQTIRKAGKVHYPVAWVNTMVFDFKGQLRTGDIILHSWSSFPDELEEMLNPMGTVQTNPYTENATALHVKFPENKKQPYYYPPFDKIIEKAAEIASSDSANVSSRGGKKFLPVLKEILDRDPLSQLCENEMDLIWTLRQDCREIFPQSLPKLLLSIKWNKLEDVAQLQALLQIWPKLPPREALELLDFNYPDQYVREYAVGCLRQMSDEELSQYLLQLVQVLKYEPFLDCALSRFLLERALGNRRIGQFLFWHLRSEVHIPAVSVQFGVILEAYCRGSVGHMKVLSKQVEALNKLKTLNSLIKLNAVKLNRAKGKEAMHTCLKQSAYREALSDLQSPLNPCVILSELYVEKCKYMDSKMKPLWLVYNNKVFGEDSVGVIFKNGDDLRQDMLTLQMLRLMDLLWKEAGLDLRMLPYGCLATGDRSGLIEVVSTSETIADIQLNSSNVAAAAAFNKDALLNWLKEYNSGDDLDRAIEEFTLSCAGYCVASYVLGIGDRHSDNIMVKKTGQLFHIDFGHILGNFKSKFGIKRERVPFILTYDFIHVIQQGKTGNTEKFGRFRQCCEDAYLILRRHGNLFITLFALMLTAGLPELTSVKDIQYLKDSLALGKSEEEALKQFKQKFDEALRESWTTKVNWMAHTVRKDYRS
# Chain of p110β (PI3Kβ) (P27986 whole entry partner, species assumed): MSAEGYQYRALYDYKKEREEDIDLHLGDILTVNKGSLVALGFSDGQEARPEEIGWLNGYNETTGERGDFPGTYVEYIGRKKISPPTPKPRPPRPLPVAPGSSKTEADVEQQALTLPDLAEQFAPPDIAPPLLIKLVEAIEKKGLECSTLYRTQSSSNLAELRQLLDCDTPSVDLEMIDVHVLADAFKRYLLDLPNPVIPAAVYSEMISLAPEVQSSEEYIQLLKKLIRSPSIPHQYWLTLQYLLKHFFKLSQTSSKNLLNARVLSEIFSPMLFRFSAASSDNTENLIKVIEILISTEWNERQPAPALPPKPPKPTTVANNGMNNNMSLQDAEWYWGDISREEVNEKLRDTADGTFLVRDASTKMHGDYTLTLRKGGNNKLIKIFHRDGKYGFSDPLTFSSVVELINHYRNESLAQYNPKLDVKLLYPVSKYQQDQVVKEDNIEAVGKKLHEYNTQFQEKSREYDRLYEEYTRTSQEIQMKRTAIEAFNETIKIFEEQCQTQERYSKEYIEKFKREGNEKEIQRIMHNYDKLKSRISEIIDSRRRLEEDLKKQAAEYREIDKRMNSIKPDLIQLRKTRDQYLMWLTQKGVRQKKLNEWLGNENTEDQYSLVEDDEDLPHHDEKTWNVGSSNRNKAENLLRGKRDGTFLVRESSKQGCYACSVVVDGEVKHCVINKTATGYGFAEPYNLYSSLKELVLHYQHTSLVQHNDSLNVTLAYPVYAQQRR
# p110γ (PI3Kγ) = p110γ (PI3Kγ) (Homo sapiens, UniProt P48736); settings: cited from earlier work
# Chain of p110γ (PI3Kγ) (P48736 whole entry, species assumed): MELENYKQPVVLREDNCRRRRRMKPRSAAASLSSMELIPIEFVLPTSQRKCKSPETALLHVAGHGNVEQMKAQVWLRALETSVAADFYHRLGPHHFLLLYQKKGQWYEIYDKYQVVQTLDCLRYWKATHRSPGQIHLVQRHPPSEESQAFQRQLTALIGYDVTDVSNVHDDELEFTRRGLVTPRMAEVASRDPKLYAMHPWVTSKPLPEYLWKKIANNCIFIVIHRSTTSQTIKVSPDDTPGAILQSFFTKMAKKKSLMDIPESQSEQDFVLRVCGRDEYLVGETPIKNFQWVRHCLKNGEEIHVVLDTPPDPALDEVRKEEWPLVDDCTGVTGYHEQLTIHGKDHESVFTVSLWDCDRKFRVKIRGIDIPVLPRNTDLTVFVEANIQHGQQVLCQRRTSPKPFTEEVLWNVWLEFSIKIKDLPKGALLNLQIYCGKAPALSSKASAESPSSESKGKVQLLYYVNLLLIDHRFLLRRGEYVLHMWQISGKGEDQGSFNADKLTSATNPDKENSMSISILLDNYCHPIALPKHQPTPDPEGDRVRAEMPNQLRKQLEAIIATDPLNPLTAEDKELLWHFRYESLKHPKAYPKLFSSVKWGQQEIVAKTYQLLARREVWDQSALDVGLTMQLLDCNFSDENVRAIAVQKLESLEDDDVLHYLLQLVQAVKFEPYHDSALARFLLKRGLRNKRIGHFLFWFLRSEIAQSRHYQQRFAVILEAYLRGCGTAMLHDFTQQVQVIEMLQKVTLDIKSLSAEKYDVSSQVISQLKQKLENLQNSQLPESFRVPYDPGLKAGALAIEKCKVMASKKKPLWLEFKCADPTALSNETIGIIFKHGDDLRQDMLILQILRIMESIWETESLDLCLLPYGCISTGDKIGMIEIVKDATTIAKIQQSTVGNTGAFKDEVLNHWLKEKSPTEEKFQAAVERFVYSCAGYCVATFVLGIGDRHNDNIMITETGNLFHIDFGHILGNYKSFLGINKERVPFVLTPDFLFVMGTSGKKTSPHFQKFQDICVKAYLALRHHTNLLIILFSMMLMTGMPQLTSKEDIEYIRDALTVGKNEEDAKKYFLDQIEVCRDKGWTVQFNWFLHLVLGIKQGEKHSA
# PI3K/mTOR = settings: cited from earlier work
# [2] = test system: Akt phosphorylation on T308; settings: cited from earlier work
# [3] = test system: Akt phosphorylation on S473; settings: cited from earlier work
molecule,measurement,setting,value
COc1cc(Nc2nc3ccccc3nc2NS(=O)(=O)c2ccc(NC(=O)c3ccc(C)c(OC)c3)cc2)cc(OC)c1 [XL765],IC50,mTOR,157 nM
"CO[C@H]1C[C@@H]2CC[C@@H](C)[C@@](O)(O2)C(=O)C(=O)N2CCCC[C@H]2C(=O)O[C@H]([C@H](C)C[C@@H]2CC[C@@H](OCCO)[C@H](OC)C2)CC(=O)[C@H](C)/C=C(\C)[C@@H](O)[C@@H](OC)C(=O)[C@H](C)C[C@H](C)/C=C/C=C/C=C/1C [Everolimus, reference compound]",tumor mass with respect to vehicle-treated mice,[1],not active
same,IC50,FKBP12,1.6 to 2.4 nM
CC(=O)O[C@@]12CO[C@@H]1C[C@H](O)[C@@]1(C)C(=O)[C@H](O)C3=C(C)[C@@H](OC(=O)[C@H](O)[C@@H](NC(=O)OC(C)(C)C)c4ccccc4)C[C@@](O)([C@@H](OC(=O)c4ccccc4)[C@H]21)C3(C)C [Docetaxel],IC50,HCC1937,7.2 nM
same,IC50,MDA-MB-231,3 nM
GSK2126458,Ki,p110β (PI3Kβ),0.13 nM
same,Ki,p110γ (PI3Kγ),0.024 nM
"CO[C@H]1CC2CC[C@@H](C)[C@@](O)(O2)C(=O)C(=O)N2CCCC[C@H]2C(=O)O[C@H]([C@H](C)C[C@@H]2CCC(OP(C)(C)=O)[C@H](OC)C2)CC(=O)[C@H](C)/C=C(\C)[C@@H](O)[C@@H](OC)C(=O)[C@H](C)C[C@H](C)/C=C/C=C/C=C/1C (some centres unmarked) [Deforolimus, 42-(Dimethylphosphinate) rapamycin]",IC50,mTOR,0.2 nM
COc1ccc(-c2ccc3ncc4c(c3c2)n(-c2ccc(N3CCNCC3)c(C(F)(F)F)c2)c(=O)n4C)cn1 [NVP-BGT226],IC50,PI3K/mTOR,1 nM
COc1ccc(-c2cc3c(C)nc(N)nc3n([C@H]3CC[C@H](OCCO)CC3)c2=O)cn1 [PF-04691502],IC50,[2],7.5 nM
same,IC50,[3],3.8 nM
